What was measured:
Colorado potato beetle = experiment: Leaf-dip bioassay on potato leaves, larval mortality; format: in vivo; settings: Leptinotarsa decemlineata, 120 h
Experimental: (§1) Potato plants for Colorado potato beetle and two-leaf cotton plants for tobacco budworm were utilized for bioassays. Excised plant leaves were dipped into 1:1 acetone/water dilutions of the active compounds. After the leaves had dried, they were individually placed onto water-moistened filter paper on the bottoms of Petri dishes. Each dish was infested with 5-7 larvae and covered with a lid. Each treatment dilution was replicated 4 times. Test dishes were held at approximately 27° C. and 60% humidity. Numbers of live and morbid larvae were assessed in each dish at 5 days after treatment application, and percent mortality was calculated.
(§2) To determine if an insecticidal mixture was synergistic, Limpel's formula was used:
(§3) E=Expected % mortality of the mixture X=% mortality of compound X, as measured independently Y=% mortality of compound Y, as measured independently
(§4) Synergism was evident if the % observed mortality for the mixture was greater than the % expected mortality.

tobacco budworm = experiment: Leaf-dip bioassay on cotton leaves, larval mortality; format: in vivo; settings: Heliothis virescens, 120 h, read-out: % Mortality of Tobacco Budworm
Experimental: as §1, §2, §3, §4

[1] = read-out: % Mortality of Colorado Potato Beetle

CCN/C(=N\Nc1c(Cl)cc(C(F)(F)F)cc1Cl)C(C)(C)C [I-1, N-ethyl-2,2-dimethylpropionamide-2-(2,6-dichloro-α,α,α-trifluoro-p-tolyl)-hydrazone]
mortality at 100 ppm (Colorado potato beetle; dose rate 100 ppm, 5 days after treatment): 0% | mortality at 300 ppm (Colorado potato beetle; dose rate 300 ppm, 5 days after treatment): 20.8% | mortality at 100 ppm (tobacco budworm): 0% | mortality at 300 ppm (tobacco budworm): 16%

CCN/C(=N\Nc1c(Cl)cc(C(F)(F)F)cc1Cl)C1(C)CC1(Cl)Cl (stereo not drawn) [I-2, N-Ethyl-2,2-dichloro-1-methylcyclopropane-carboxamide-2-(2,6-dichloro-α,α,α-tri-fluoro-p-tolyl)hydrazone]
mortality at 30 ppm (Colorado potato beetle; dose rate 30 ppm, 5 days after treatment): 6.3% | mortality at 60 ppm (Colorado potato beetle; dose rate 60 ppm, 5 days after treatment): 39.6% | mortality at 60 ppm (tobacco budworm): 5.4% | mortality at 100 ppm (tobacco budworm): 12.5%

CC1(C)C(C=C(Cl)Cl)C1C(=O)OC(C#N)c1cccc(Oc2ccccc2)c1 (stereo not drawn) [alpha-cypermethrin, reference compound]
mortality at 0.03 ppm (Colorado potato beetle; [1]): 0% | mortality at 0.06 ppm (Colorado potato beetle; [1]): 4.2% | mortality at 0.03 ppm (tobacco budworm): 0% | mortality at 0.06 ppm (tobacco budworm): 8.9%

O=[N+]([O-])NC1=NCCN1Cc1ccc(Cl)nc1 [imidacloprid, reference compound]
mortality at 0.06 ppm (Colorado potato beetle; [1]): 0%

Reference: patent publication US20080194641A1, “Pesticidal Mixtures” (BASF Aktiengesellschaft, priority 2005, published 2008)
